Test: Rat PK: plasma clearance after PO and IV dosing
Type: in vivo
Details: fasted male Wistar Han rats; IV 0.5 mg/kg or 0.05 mg/kg; 20/60/20 DMSO/PEG400/H2O
Description: Experimental Procedure for Collecting Rat PK:
Pharmacokinetic parameters were determined following PO and IV dosing at 1 mg/kg and 0.5 mg/kg or 0.05 mg/kg respectively in fasted male Wistar Han rats. Compounds were formulated for both PO and IV dosing in 20/60/20 DMSO/PEG400/H2O. Plasma samples obtained from dosed animals were acidified by adding 30 μL of 2% formic acid to 100 μL of plasma to stabilize potential acyl-glucuronide metabolites. Sample clean-up was carried out by means of a single step protein precipitation technique by adding 200 μL of acetonitrile to 50 μL aliquots of individual subject samples. Samples were mixed by vortex for homogeneity and then subjected to centrifugation at 3500 rpm for 10 min. The supernatant (200 μL) was collected and an aliquot was injected into the LC-MS/MS for analysis. Pharmacokinetic parameters were calculated using established non-compartmental methods. The area under the plasma concentration versus time curve (AUC) was determined using the Watson software (version 7.3) or Phoenix Professional (version 6.2.1), with linear trapezoidal interpolation in the ascending slope and logarithmic trapezoidal interpolation in the descending slope. The portion of the AUC from the last measurable concentration to infinity was estimated from the equation, Ct/kel, where Ct represents the last measurable concentration and kel is the elimination rate constant. The latter was determined from the concentration versus time curve by linear regression at the terminal phase of the semi-logarithmic plot.

With `O=C(O)c1ccc(-c2nn(C(=O)c3c(Cl)cccc3C(F)(F)F)c3cccnc23)c(F)c1` [historical compound, reference compound] the “Rat plasma clearance (Clp)” value was 76 mL/min/kg.

Same assay, conditions: rat, plasma; fasted male Wistar Han rats; IV 0.5 mg/kg or 0.05 mg/kg; 20/60/20 DMSO/PEG400/H2O; read-out: Rat plasma clearance (Clp)

Compared with `O=C(O)c1ccc(-c2nn(C(=O)c3c(Cl)cccc3C3(C(F)(F)F)CC3)c3cccnc23)c(F)c1` [Example 1A, 4-(1-(2-chloro-6-(1-(trifluoromethyl)cyclopropyl)benzoyl)-1H-pyrazolo[4,3-b]pyridin-3-yl)-3-fluorobenzoic acid], `Cc1cccc(C2(C(F)(F)F)CC2)c1C(=O)n1nc(-c2ccc(C(=O)O)cc2F)c2ncccc21` [Example 1C, 3-fluoro-4-(1-(2-methyl-6-(1-(trifluoromethyl)cyclopropyl)benzoyl)-1H-pyrazolo[4,3-b]pyridin-3-yl)benzoic acid] is 3.5-fold higher in clearance: 6 mL/min/kg for the first, 21 mL/min/kg for the second.

`O=C(O)c1ccc(-c2cn(C(=O)c3c(Cl)cccc3C3(C(F)(F)F)CC3)c3cccnc23)c(F)c1` [Example 1B, 4-(1-(2-chloro-6-(1-(trifluoromethyl)cyclopropyl)benzoyl)-1H-pyrrolo[3,2-b]pyridin-3-yl)-3-fluorobenzoic acid] and `O=C(O)c1ccc(-c2cn(C(=O)c3c(Cl)cccc3C3(C(F)F)CC3)c3cccnc23)c(F)c1` [Example 1J] are the same in clearance: 5 mL/min/kg for the first, 5 mL/min/kg for the second.

Going from `O=C(O)c1ccc(-c2nn(C(=O)c3c(Cl)cccc3C3(C(F)F)CC3)c3cccnc23)c(F)c1` [Example 1D, 4-(1-(2-chloro-6-(1-(difluoromethyl)cyclopropyl)benzoyl)-1H-pyrazolo[4,3-b]pyridin-3-yl)-3-fluorobenzoic acid] to `O=C(O)c1ccc(-c2nn(C(=O)c3c(C4(C(F)F)CC4)ccc(F)c3Cl)c3cccnc23)c(F)c1` [Example 1H, 4-(1-(2-chloro-6-(1-(difluoromethyl)cyclopropyl)-3-fluorobenzoyl)-1H-pyrazolo[4,3-b]pyridin-3-yl)-3-fluorobenzoic acid], the clearance rises from 10 mL/min/kg to 16 mL/min/kg (1.6-fold).

Going from `O=C(O)c1ccc(-c2nn(C(=O)c3c(Cl)cccc3C3(CF)CC3)c3cccnc23)c(F)c1` [Example 1E, 4-(1-(2-chloro-6-(1-(fluoromethyl)cyclopropyl)benzoyl)-1H-pyrazolo[4,3-b]pyridin-3-yl)-3-fluorobenzoic acid] to `O=C(O)c1ccc(-c2nn(C(=O)c3c(C(F)F)cccc3C3(C(F)(F)F)CC3)c3cccnc23)c(F)c1` [Example 1G, 4-(1-(2-(difluoromethyl)-6-(1-(trifluoromethyl)cyclopropyl)benzoyl)-1H-pyrazolo[4,3-b]pyridin-3-yl)-3-fluorobenzoic acid], the clearance falls from 16 mL/min/kg to 5 mL/min/kg (3.2-fold).

Compared with `O=C(O)c1ccc(-c2nn(C(=O)c3c(C4(C(F)(F)F)CC4)ccc(F)c3Cl)c3cccnc23)c(F)c1` [Example 1F, 4-(1-(2-chloro-3-fluoro-6-(1-(trifluoromethyl)cyclopropyl)benzoyl)-1H-pyrazolo[4,3-b]pyridin-3-yl)-3-fluorobenzoic acid], `Cc1c(F)ccc(C2(C(F)(F)F)CC2)c1C(=O)n1nc(-c2ccc(C(=O)O)cc2F)c2ncccc21` [Example 1I, 3-fluoro-4-(1-(3-fluoro-2-methyl-6-(1-(trifluoromethyl)cyclopropyl)benzoyl)-1H-pyrazolo[4,3-b]pyridin-3-yl)benzoic acid] is 2.2-fold higher in clearance: 8 mL/min/kg for the first, 18 mL/min/kg for the second.
